From patent US8835422B2, “Substituted imidazoheterocycle derivatives” (Cara Therapeutics, Inc., priority 2008, dated 2014) come the findings set out here.

By EC50 is commonly meant the midpoint of the concentration-response curve.

SMILES strings stand for the structures.

For experiment [1], the target named is T1, human CB2 receptor (hCB2) (Homo sapiens, UniProt P34972).
T1 construct: host or cells: CHO-K1
As to the kind of experiment: cAMP assay (LANCE TR-FRET) in CHO-K1 cells stably expressing hCB2. The format is cell-based. Here is the method:
(§1) The ability of compounds to act as agonists or inverse agonists at human CB2 and CB1 receptors (hCB2, hCB1, respectively) and at the rat CB2 receptor (rCB2) was determined by measuring changes in intracellular cAMP levels. Chinese Hamster Ovary (CHO-K1) cell lines stably expressing hCB2 (Genebank: X74328) or hCB1 (Genebank: X54937) were purchased from Euroscreen (Gosselies, Belgium). The rat CB2 receptor was expressed from genomic DNA (provided by M. Abood, California Pacific Medical Center) in CHO-K1 cells from expression plasmid vector, pcDNA3.1.
(§2) Receptor mediated responses were determined by measuring changes in intracellular cAMP using LANCE cAMP detection kit (cat #AD0264, Perkin Elmer, Wellesley, Mass.) based on time-resolved fluorescence resonance energy transfer (TR-FRET).
(§3) On the day of the experiment, cells were spun at low speed for 5 min at room temperature. […] Cell clumps were removed by filtering through cell strainer 40 μm (BD Falcon, Discovery Labware, Bedford, Mass.) and diluted to 2×10^5 cells/mL. Antibody supplied with the LANCE cAMP immunoassay kit was then added according to the manufacturer's instructions. An aliquot of cells was taken for un-induced controls. […] Cells were then incubated for 30 min at room temperature prior to adding to Proxiplates containing test compounds (final DMSO concentration was less than 0.5%) with a Multidrop bulk dispenser, followed by a sixty minute incubation at room temperature. The response was stopped by addition of the detection mix supplied with the LANCE kit. The reagents were allowed to equilibrate for three hours prior to reading on an Envision multi-mode detector (Perkin-Elmer). TR-FRET was measured using a 330-380 nm excitation filter, a 665 nm emission filter, dichroic mirror 380 nm and Z=1 mm. Cyclic AMP concentrations in each well were back-calculated from a cAMP standard curve run concurrently during each assay. Each plate contained 16 wells of forskolin stimulated cells and 16 wells of forskolin plus CP55,940-treated cells. […] Concentrations of cAMP were expressed as a percent of the difference of these two groups of wells.
(Changes in cAMP serve as a functional read-out for many G protein-coupled receptors.)

Experiment [2] deals with human CB1 receptor (hCB1) (Homo sapiens, UniProt P21554). Nature of the experiment: cAMP assay (LANCE TR-FRET) in CHO-K1 cells stably expressing hCB1. The format is cell-based. Here is the method:
as §1, §2, §3

T1 sequence (P34972 whole entry): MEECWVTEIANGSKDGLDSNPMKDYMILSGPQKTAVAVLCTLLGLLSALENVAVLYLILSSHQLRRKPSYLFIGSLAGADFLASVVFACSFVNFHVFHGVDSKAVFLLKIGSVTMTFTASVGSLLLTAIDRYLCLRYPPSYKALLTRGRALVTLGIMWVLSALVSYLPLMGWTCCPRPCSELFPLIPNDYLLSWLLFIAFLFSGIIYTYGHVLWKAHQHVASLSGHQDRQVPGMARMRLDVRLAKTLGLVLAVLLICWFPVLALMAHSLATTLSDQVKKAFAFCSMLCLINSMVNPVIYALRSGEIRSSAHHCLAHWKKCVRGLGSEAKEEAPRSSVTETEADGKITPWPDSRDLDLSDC
human CB1 receptor (hCB1), sequence (P21554 whole entry): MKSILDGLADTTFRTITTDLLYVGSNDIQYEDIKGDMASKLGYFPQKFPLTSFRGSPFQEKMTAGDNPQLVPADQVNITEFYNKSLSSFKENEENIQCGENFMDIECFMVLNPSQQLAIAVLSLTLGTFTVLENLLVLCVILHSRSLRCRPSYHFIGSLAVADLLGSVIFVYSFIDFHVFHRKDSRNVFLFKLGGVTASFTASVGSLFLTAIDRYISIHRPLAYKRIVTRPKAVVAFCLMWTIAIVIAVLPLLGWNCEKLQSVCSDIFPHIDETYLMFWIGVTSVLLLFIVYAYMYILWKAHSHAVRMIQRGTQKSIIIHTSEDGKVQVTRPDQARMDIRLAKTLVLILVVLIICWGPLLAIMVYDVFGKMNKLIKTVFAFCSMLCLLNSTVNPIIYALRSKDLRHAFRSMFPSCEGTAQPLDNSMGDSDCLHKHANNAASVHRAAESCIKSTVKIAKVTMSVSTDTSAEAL

Turning to `CNC(=O)[C@@H](NC(=O)c1nc(-c2ccccc2)n2c1CCOCC2)C(C)(C)C` [Compound 1-8, (S)—N-(3,3-dimethyl-1-(methylamino)-1-oxobutan-2-yl)-3-phenyl-5,6,8,9-tetrahydroimidazo[1,5-d][1,4]oxazepine-1-carboxamide], in experiment [1], the EC50 was in the range of 10 to 100 nM.
For `O=C(N[C@@H]1c2ccccc2C[C@@H]1O)c1nc(-c2ccc(F)c(F)c2)n2c1CCCCC2` [Compound 1-16, 3-(3,4-difluorophenyl)-N-((1R,2S)-2-hydroxy-2,3-dihydro-1H-inden-1-yl)-6,7,8,9-tetrahydro-5H-imidazo[1,5-a]azepine-1-carboxamide], the EC50 in experiment [2] and in experiment [1] was 10 to 100 nM in each case.
In experiment [1], `CC(C)(C)[C@H](NC(=O)c1nc(-c2ccc(F)c(F)c2)n2c1COCCC2)C(=O)NCCO` [Compound 1-11, (S)-3-(3,4-difluorophenyl)-N-(1-(2-hydroxyethylamino)-3,3-dimethyl-1-oxobutan-2-yl)-5,6,7,9-tetrahydroimidazo[5,1-c][1,4]oxazepine-1-carboxamide] showed a concentration for a half-maximal effect (EC50) of 10 to 100 nM.
On to `COC(=O)[C@@H](NC(=O)c1nc(-c2ccc(F)c(F)c2)n2c1CCCCC2)C(C)(C)C` [Compound 1-23, (S)-methyl 2-(3-(3,4-difluorophenyl)-6,7,8,9-tetrahydro-5H-imidazo[1,5-a]azepine-1-carboxamido)-3,3-dimethylbutanoate], for which the EC50 in experiment [2] and in experiment [1] was 0.1 to 10 nM each time.
Take `O=C(N[C@H]1c2ccccc2C[C@H]1O)c1nc(-c2ccc(F)c(F)c2)n2c1CCCCC2` [Compound 1-18, 3-(3,4-difluorophenyl)-N-((1S,2R)-2-hydroxy-2,3-dihydro-1H-inden-1-yl)-6,7,8,9-tetrahydro-5H-imidazo[1,5-a]azepine-1-carboxamide]: the values for the 50% effective concentration (EC50) in experiment [2] and in experiment [1] were 10 to 100 nM and 0.1 to 10 nM, respectively.
Take `CC(C)(C)[C@H](NC(=O)c1nc(-c2cc(F)ccc2F)n2c1CCCCC2)C(=O)N1CCC1` [Compound 1-5, (S)—N-(1-(azetidin-1-yl)-3,3-dimethyl-1-oxobutan-2-yl)-3-(2,5-difluorophenyl)-6,7,8,9-tetrahydro-5H-imidazo[1,5-a]azepine-1-carboxamide]: the concentration giving a half-maximal response (EC50) in experiment [2] and in experiment [1] was 0.1 to 10 nM throughout.
Take `CNC(=O)[C@@H](NC(=O)c1nc(-c2ccc(F)c(F)c2)n2c1CN(C)C(C)CC2)C(C)(C)C` (single isomer, unassigned) [Compound 2-4]: the concentration for a half-maximal effect (EC50) in experiment [1] fell in the range of 10 to 100 nM.
Turning to `CC[C@H](C)[C@H](NC(=O)c1nc(-c2ccc(F)c(F)c2)n2c1CCCCC2)C(N)=O` [Compound 1-14, N-((2S,3S)-1-amino-3-methyl-1-oxopentan-2-yl)-3-(3,4-difluorophenyl)-6,7,8,9-tetrahydro-5H-imidazo[1,5-a]azepine-1-carboxamide], the EC50 in experiment [2] and in experiment [1] was 0.1 to 10 nM each time.
Regarding `CNC(=O)[C@@H](NC(=O)c1nc(-c2cc(F)ccc2F)n2c1COCCC2)C(C)(C)C` [Compound 1-12, (S)-3-(2,5-difluorophenyl)-N-(3,3-dimethyl-1-(methylamino)-1-oxobutan-2-yl)-5,6,7,9-tetrahydroimidazo[5,1-c][1,4]oxazepine-1-carboxamide], the half-maximal effective concentration (EC50) in experiment [2] and in experiment [1] was 0.1 to 10 nM each time.
In the case of `O=C(NC1CCc2ccccc21)c1nc(-c2ccc(F)c(F)c2)n2c1CCCCC2` (centres unmarked) [Compound 1-19, 3-(3,4-difluorophenyl)-N-(2,3-dihydro-1H-inden-1-yl)-6,7,8,9-tetrahydro-5H-imidazo[1,5-a]azepine-1-carboxamide], in experiment [1], the EC50 fell in the range of 0.1 to 10 nM.
For the molecule `O=C(N[C@H]1c2ccccc2C[C@@H]1O)c1nc(-c2ccc(F)c(F)c2)n2c1CCCCC2` [Compound 1-15, 3-(3,4-difluorophenyl)-N-((1S,2S)-2-hydroxy-2,3-dihydro-1H-inden-1-yl)-6,7,8,9-tetrahydro-5H-imidazo[1,5-a]azepine-1-carboxamide], the 50% effective concentration (EC50) in experiment [1] was in the range of 0.1 to 10 nM.
Consider `O=C(N[C@@H]1CCCc2ccccc21)c1nc(-c2ccc(F)c(F)c2)n2c1CCCCC2` [Compound 1-21, (R)-3-(3,4-difluorophenyl)-N-(1,2,3,4-tetrahydronaphthalen-1-yl)-6,7,8,9-tetrahydro-5H-imidazo[1,5-a]azepine-1-carboxamide], for which the EC50 in experiment [1] was 0.1 to 10 nM.
`CC(C)(C)[C@@H](CO)NC(=O)c1nc(-c2ccc(F)c(F)c2)n2c1CCCCC2` [Compound 1-6, (S)-3-(3,4-difluorophenyl)-N-(1-hydroxy-3,3-dimethylbutan-2-yl)-6,7,8,9-tetrahydro-5H-imidazo[1,5-a]azepine-1-carboxamide] had a 50% effective concentration (EC50) in experiment [1] of 0.1 to 10 nM.
As to `CC(C)(C)[C@H](NC(=O)c1nc(-c2ccccc2)n2c1CCCCC2)C(=O)NCCF` [Compound 1-22, (S)—N-(1-(2-fluoroethylamino)-3,3-dimethyl-1-oxobutan-2-yl)-3-phenyl-6,7,8,9-tetrahydro-5H-imidazo[1,5-a]azepine-1-carboxamide], the values for the EC50 in experiment [2] and in experiment [1] were 10 to 100 nM and 0.1 to 10 nM, respectively.
As to `CCN1Cc2c(C(=O)N[C@H](C(=O)NC)C(C)(C)C)nc(-c3ccc(F)c(F)c3)n2CC(C)C1` (mixture of isomers) [Compound 2-3, (S)-3-(3,4-difluorophenyl)-N-(3,3-dimethyl-1-(methylamino)-1-oxobutan-2-yl)-8-ethyl-6-methyl-6,7,8,9-tetrahydro-5H-imidazo[1,5-a][1,4]diazepine-1-carboxamide], the EC50 in experiment [2] and in experiment [1] was 10 to 100 nM in each case.
With `COC(=O)[C@@H](NC(=O)c1nc(-c2ccccc2)n2c1CCCCC2)C(C)(C)C` [Compound 1-24, (S)-methyl 3,3-dimethyl-2-(3-phenyl-6,7,8,9-tetrahydro-5H-imidazo[1,5-a]azepine-1-carboxamido)butanoate], the EC50 in experiment [2] and in experiment [1] was 0.1 to 10 nM throughout.
With `O=C(N[C@@H]1c2ccccc2C[C@H]1O)c1nc(-c2ccc(F)c(F)c2)n2c1CCCCC2` [Compound 1-17, 3-(3,4-difluorophenyl)-N-((1R,2R)-2-hydroxy-2,3-dihydro-1H-inden-1-yl)-6,7,8,9-tetrahydro-5H-imidazo[1,5-a]azepine-1-carboxamide], the EC50 in experiment [2] and in experiment [1] was 10 to 100 nM throughout.
In experiment [1], `O=C(N[C@H]1CCCc2ccccc21)c1nc(-c2ccc(F)c(F)c2)n2c1CCCCC2` [Compound 1-20, (S)-3-(3,4-difluorophenyl)-N-(1,2,3,4-tetrahydronaphthalen-1-yl)-6,7,8,9-tetrahydro-5H-imidazo[1,5-a]azepine-1-carboxamide] registered a 50% effective concentration (EC50) of 0.1 to 10 nM.
Turning to `CNC(=O)[C@@H](NC(=O)c1nc(-c2ccc(F)c(F)c2)n2c1CCCC2)C(C)(C)C` [Compound 1-7, (S)-3-(3,4-difluorophenyl)-N-(3,3-dimethyl-1-(methyl-amino)-1-oxobutan-2-yl)-5,6,7,8-tetrahydroimidazo[1,5-a]pyridine-1-carboxamide], the EC50 in experiment [2] and in experiment [1] was 0.1 to 10 nM each time.
For the molecule `CNC(=O)[C@@H](NC(=O)c1nc(-c2ccc(Cl)cc2F)n2c1COCCC2)C(C)(C)C` [Compound 1-13, (S)-3-(4-chloro-2-fluorophenyl)-N-(3,3-dimethyl-1-(methylamino)-1-oxobutan-2-yl)-5,6,7,9-tetrahydroimidazo[5,1-c][1,4]oxazepine-1-carboxamide], the concentration giving a half-maximal response (EC50) in experiment [2] and in experiment [1] was 0.1 to 10 nM in each case.
`CNC(=O)[C@@H](NC(=O)c1nc(-c2ccc(F)c(F)c2)n2c1CN(C)CC(C)(C)C2)C(C)(C)C` [Compound 2-1, (S)-3-(3,4-difluorophenyl)-N-(3,3-dimethyl-1-(methylamino)-1-oxobutan-2-yl)-6,6,8-trimethyl-6,7,8,9-tetrahydro-5H-imidazo[1,5-a][1,4]diazepine-1-carboxamide]: the concentration giving a half-maximal response (EC50) in experiment [1] was in the range of 10 to 100 nM.
In the case of `CC(C)(C)[C@H](NC(=O)c1nc(-c2ccccc2)n2c1CCCCC2)C(=O)N1CCC1` [Compound 1-4, (S)—N-(1-(azetidin-1-yl)-3,3-dimethyl-1-oxobutan-2-yl)-3-phenyl-6,7,8,9-tetrahydro-5H-imidazo[1,5-a]azepine-1-carboxamide], the EC50 was in the range of 10 to 100 nM in experiment [2] and 0.1 to 10 nM in experiment [1].
